Experimental data as given in patent US20050215646A1, “Methods for treating multiple sclerosis and pharmaceutical compositions therefor” (Renovis, Inc., priority 2004, published 2005).

What was measured:
[1] = tested on: rat EAE model; experiment: Lewis rat model of experimental autoimmune encephalomyelitis (EAE); assay type: in vivo; details: 10 mg/kg/day oral gavage
Experimental: 7- to 10-week female Lewis rats (The Jackson Laboratory, Bar Harbor, Me.) were used since they are susceptible to EAE, and since MS occurs at a 2:1 ratio between females and males respectively. Rats were immunized either at the base of the tail (or in one hind footpad) with myelin antigen myelin basic peptide, MBP 85-99. Peptide antigens were mixed with complete Freund's adjuvant including killed mycobacterium tuberculosis at a doses of 4 mg/ml. 200 micrograms of antigen mixed with the 0.1 ml emulsion of adjuvant were used. The myelin antigens were dissolved in phosphate buffered saline.
Nine rats were used in each of the following groups: EAE control, vehicle control, compound 15 (prevention), compound 15 (pro-treatment), phenyl-N-butyl-nitrone (prevention) and phenyl-N-butyl-nitrone (pro-treatment). For the treatment model, fifteen rats were used in each of three groups: EAE control, vehicle control, compound 15 (treatment). Drugs were administered via oral gavage feeding. Rats were dosed daily after the first dose until recovery from acute disease (typically 20 days after EAE induction). Compound 15 was dosed at 10 mg/kg/day and phenyl-N-butyl-nitrone was dosed at 100 mg/kg/day. In the prevention model, first dose of the drugs was administered 7 days prior to EAE induction. In the pro-treatment model, first dose was administered 4 days after EAE induction. In the treatment model, first dose was administered at the peak of the disease after animals were randomized into equal groups.
All rats were followed daily for clinical signs and weighed every four days. Longer water tubes were used to allow mice to drink when they develop paralysis, and chow was put on the floor of the cage to facilitate nourishment if the rats were paralyzed. Rats were scored as follows: 0, healthy; 1, tail weakness or paralysis; 2, paraparesis (incomplete paralysis of one or two hind limbs or plegia of one hind limb); 3, paraplegia extending to the thorax; 4, forelimb weakness, paralysis with hind limb paraparesis or paraplegia; 5, moribund or dead animal.

[2] = biological target: CXCR4 (Homo sapiens, UniProt P61073); experiment: Migration of RBL-2H3 cells expressing CXCR4; assay type: cell-based; parameters: cDNA fragments encompassing chemokine receptor coding regions; expressed in transfected cells; details: RBL-2H3 cells expressing CXCR4, 2 hours
Sequence of CXCR4 (P61073 whole entry, the tested form may be a part): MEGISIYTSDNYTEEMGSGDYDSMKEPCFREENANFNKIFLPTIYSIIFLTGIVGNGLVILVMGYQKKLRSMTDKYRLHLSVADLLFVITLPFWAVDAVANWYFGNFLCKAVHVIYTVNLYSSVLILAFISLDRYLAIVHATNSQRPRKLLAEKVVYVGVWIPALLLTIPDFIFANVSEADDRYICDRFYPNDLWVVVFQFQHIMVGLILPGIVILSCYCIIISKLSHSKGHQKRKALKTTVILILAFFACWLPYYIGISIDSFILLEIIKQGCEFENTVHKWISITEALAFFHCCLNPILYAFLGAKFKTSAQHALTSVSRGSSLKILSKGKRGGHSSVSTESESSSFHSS
Experimental: (§1) RBL-2H3 cells were obtained from American Type Culture Collection (CRL-2256) and cultured in Minimum essential medium (MEM) with 10% heat-inactivated fetal bovine serum, 100 μg/ml penicillin/streptomycin. cDNA fragments encompassing chemokine receptor coding regions were obtained from cDNAs synthesized from HL-60 cells and/or human peripheral blood mononuclear cells by the polymerase chain reaction. Expression constructs of chemokine receptors were generated by cloning PCR fragments into expression vector pEF6/V5-TOPO (K9610-20, Invitrogen). Plasmid containing full-length human CXCR5 cDNA (human CXCR50TN00, pcDNA3.1+) was purchased from UMR cDNA Resource Center (Rolla, Mo.). Plasmid containing full-length human CCR7 cDNA (human CCR0700000, pcDNA3.1+) was purchased from UMR cDNA Resource Center (Rolla, Mo.). Transient transfections were carried out with Fugene 6 transfection reagent (1814443, Roche Applied Science) according to the manufacturer's instructions. […]
(§2) Following the migration assays, cells that had migrated to the bottom wells were quantitated using CyQuant reagents according to the manufacturer's instructions (Molecular Probes, Eugene, Oreg.). […] The fluorescence intensity (excitation wavelength at 485 nm and emission wavelength at 530 nm) was measured using Safire Spectrometer (Tecan; Research Triangle Park, N.C.).

[3] = biological target: T1, CCR7 (Homo sapiens, UniProt P32248); experiment: Migration of RBL-2H3 cells expressing CCR7; assay type: cell-based; details: RBL-2H3 cells expressing CCR7, 2 hours
T1 construct: Plasmid containing full-length human CCR7 cDNA; host or cells: RBL-2H3 (ATCC CRL-2256), transient transfection
T1 sequence (P32248 25-378): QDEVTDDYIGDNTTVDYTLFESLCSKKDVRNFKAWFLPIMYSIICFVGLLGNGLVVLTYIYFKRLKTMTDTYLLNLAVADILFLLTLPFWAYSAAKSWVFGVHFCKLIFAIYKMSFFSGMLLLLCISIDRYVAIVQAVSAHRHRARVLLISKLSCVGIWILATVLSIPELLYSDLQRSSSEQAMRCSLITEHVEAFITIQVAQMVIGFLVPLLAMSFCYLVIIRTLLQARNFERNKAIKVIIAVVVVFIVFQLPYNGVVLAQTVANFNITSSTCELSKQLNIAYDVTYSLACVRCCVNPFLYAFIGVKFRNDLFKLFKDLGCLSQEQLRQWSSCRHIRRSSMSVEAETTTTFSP
Experimental: as §1, §2

induction of cell migration [2]	induction of cell migration [3]	SMILES	disease free rats, treatment model ([1]; first dose at the peak of EAE, compared to controls, FIG. 14)	clinical scores, pro-treatment model ([1]; rats, first dose 4 days after EAE induction, compared to control or PBN, FIG. 13)	change of clinical scores on day 15, pro-treatment model ([1]; rats, first dose 4 days after EAE induction, day 15)	clinical scores, prevention model ([1]; rats, first dose 7 days prior to EAE induction, compared to controls and to PBN (100 mg/kg/day), FIG. 12)
		COCOc1c(C(C)(C)C)cc(/C=[N+](\[O-])C(C)(C)C)cc1C(C)(C)C [Compound 15, α-(4-methoxymethoxy-3,5-di-tert-butyl-phenyl)-N-tert-butylnitrone]	significantly more rats treated with compound 15 were disease free	significantly better clinical scores	improved dramatically	significantly better clinical scores
induced migration	induced migration	CCC(C)c1cc(/C=[N+](\[O-])C(C)(C)C)cc(C(C)CC)c1O (stereo not drawn) [Compound 17]				
